Assay results reported in patent US20100272710A1, “COMPOSITIONS AND METHODS FOR TREATING AND PREVENTING AGING-ASSOCIATED DISEASES” (priority 2009, published 2010).
Where two headings read alike, the source gives them in different places.

What was measured:
TXNIP [1] = assay: Western blot of TXNIP expression in human embryonic stem cells BG01V; assay type: cell-based
Experimental: (§1) Effects of limited glucose availability, resveratrol and DHEA on expression of TXNIP and Sirt1 in normal cells. Aortic smooth muscle cells (4A) and human embryonic stem cells (4B) were treated as described in FIG. 1 for cancer cells. Expression Sirt1 and TXNIP were analyzed by Western blot using specific antibodies. Antibody to GAPDH was used as loading control. (Glc: glucose; Resv: Resveratrol).
(§2) To test whether cellular proliferative capacity may account for this difference, we measured expression of Sirt1 and TXNIP in embryonic stem cells known for rapid self renewal ability. The human embryonic stem cells, BG01V, were subjected to glucose restriction or treatment with either resveratrol or DHEA under similar conditions to those described in FIG. 4. […] In contrast, the consistent inhibition of TXNIP by limited glucose availability in cancer cells as well as in differentiated smooth muscle cells and non-differentiated stem cells, is indicative of a potential role of this gene in mediating the anti-aging action of calorie restriction.

[2] = molecular target: glucose 6 phosphate dehydrogenase, G6PD (Homo sapiens, UniProt P11413); assay: G6PD activity in protein extract (NADPH production); settings: 30 min at 37° C.; for activity of G6PD: protein extract 100 ug
Chain of glucose 6 phosphate dehydrogenase, G6PD (P11413 whole entry): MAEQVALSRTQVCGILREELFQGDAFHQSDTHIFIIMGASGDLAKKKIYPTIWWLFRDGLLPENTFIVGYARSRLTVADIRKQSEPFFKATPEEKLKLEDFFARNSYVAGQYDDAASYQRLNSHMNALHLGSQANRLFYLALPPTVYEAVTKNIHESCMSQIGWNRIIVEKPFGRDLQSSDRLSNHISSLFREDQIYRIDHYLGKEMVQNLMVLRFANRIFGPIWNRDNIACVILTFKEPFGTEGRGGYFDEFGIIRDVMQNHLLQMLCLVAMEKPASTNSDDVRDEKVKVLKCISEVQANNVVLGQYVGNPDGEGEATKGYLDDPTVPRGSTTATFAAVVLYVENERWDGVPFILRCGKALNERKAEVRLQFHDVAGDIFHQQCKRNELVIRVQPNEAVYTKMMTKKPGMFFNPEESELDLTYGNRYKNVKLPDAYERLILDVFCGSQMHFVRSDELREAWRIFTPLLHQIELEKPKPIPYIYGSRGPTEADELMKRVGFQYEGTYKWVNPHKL
Experimental: Protein extract (100 _g) was incubated with DHEA or resveratrol at the indicated concentrations, after 30 min at 37° C., the activity of G6PD was measured as described in the methods section.

Sirt1 [3] = assay type: cell-based; settings: aortic smooth muscle cells, Western blot
Experimental: as §1
(§3) In order to obtain information on the physiological relevance of targeting Sirt1 and TXNIP in normal tissues, we investigated the effect of limited glucose availability, resveratrol and DHEA in differentiated aortic smooth muscle cells, and non-differentiated, human embryonic stem cells.

AMPK = assay: Phosphorylation of AMPK in cells (Western blot, anti-phospho-AMPK Thr172); assay type: cell-based; settings: for AMPK phosphorylation: osteosarcoma cells SaOS2, 48 hours
Experimental: SaOS2 cells were treated with increasing concentrations of resveratrol for 48 hours, after what, proteins were extracted and probed either with anti-phospho-AMPK (Thr172), or with antibody to AMPK.
RGC cells were incubated with 20 or 100 μM resveratrol or DHEA 100 μM for 48 hours, and then probed for phosphor-AMPK and AMPK as described above.
However, the relevance of this action to the regulation of TXNIP by resveratrol and the possible implication of DHEA in regulating this pathway are not yet investigated. […] Further confirmation of this link will help establish TXNIP inhibition as an important determinant for evaluating the efficacy of putative anti-aging interventions.

TXNIP [4] = assay: Western blot of TXNIP expression in aortic smooth muscle cells; assay type: cell-based
Experimental: as §1, §3

TXNIP [5] = assay: TXNIP expression in organs of treated mice (Western blot); assay type: in vivo; settings: CD1 mice, 10 mg/Kg i.p., 2 days
Experimental: (§4) Tissue distribution of Sirt1 and TXNIP in mice and their regulation by resveratrol and DHEA. Mice CD1 strain were injected (i.p.) with 10 mg/Kg of either resveratrol or DHEA and after 2 days, the animals were sacrificed and organs harvested and processed by Western blot for the expression of Sirt1 and TXNIP. Staining with GAPDH was used as a loading control.
(§5) In order to determine whether the observed effects in vitro could be also valid in vivo, we have subjected the nude mice (CD1 strain, Charles River) to treatment with either resveratrol or DHEA (10 mg/Kg each) for 2 days. The animals were then sacrificed and major organs harvested to analyze expression of Sirt1 and TXNIP by Western blot.

TXNIP [6] = assay: Western blot of TXNIP expression in cancer cells (SaOS2, RGC); assay type: cell-based; settings: for expression of TXNIP: increasing concentrations, Western blot
Experimental: (§6) SaOS2 cells were incubated in the presence of reduced glucose levels in the culture medium for 48 hours. Expression of TXNIP and Sirt1 were determined by Western blot using specific antibodies. Antibody to _-Actin was used as a loading control.
(§7) The RGC (4C) and SaOS2 (4D) cells were subjected to treatment with increasing concentrations of resveratrol (Resv.) for 48 hours followed by Western blot as described in Panel A.
(§8) SaOS2 cells were treated with increasing amounts of DHEA and probed for expression of Sirt1 and TXNIP; beta-actin was used as a loading control.
The cells were treated with different concentrations of glucose with or without DHEA. After 48 hours in cultures, proteins were separated by electrophoresis and probed for TXNIP. Staining with beta-actin antibody was used as a loading control.
(§9) The effects of limited glucose availability (used here to mimic the effect of calorie restriction), resveratrol (an activator of Sirt1) and DHEA (used for hormone replacement therapy), on the expression of TXNIP and Sirt1 were determined by Western blot using specific antibodies to the corresponding proteins (FIG. 4).

Sirt1 [7] = assay: Sirt1 expression in organs of treated mice (Western blot); assay type: in vivo; settings: CD1 mice, 10 mg/Kg i.p., 2 days
Experimental: as §4, §5

Sirt1 [8] = assay: Western blot of Sirt1 expression in human embryonic stem cells BG01V; assay type: cell-based
Experimental: as §1, §2

Sirt1 [9] = assay type: cell-based; settings: increasing concentrations, Western blot
Experimental: as §6, §7, §8, §9

[10] = retinal glial cells (RGC), 48 hours

| Compound | expression of TXNIP (TXNIP [1]) | activity of G6PD [2] | expression of Sirt1 (Sirt1 [3]) | AMPK phosphorylation (AMPK) | AMPK phosphorylation (p-AMPK) (AMPK; [10]) | expression of AMPK (AMPK; [10]) | expression of TXNIP (TXNIP [4]) | expression of TXNIP in the lung (TXNIP [5]) | expression of TXNIP in the muscle (TXNIP [5]) | expression of TXNIP (TXNIP [6]; RGC cells, 48 hours) | expression of TXNIP (TXNIP [6]; SaOS2 cells) | expression of Sirt1 in most tissues (Sirt1 [7]) | expression of Sirt1 (Sirt1 [8]) | expression of Sirt1 (Sirt1 [9]; RGC cells, 48 hours) | expression of Sirt1 (Sirt1 [9]; SaOS2 cells) | inhibitory effect on G6PD observed ([2]; protein extract, assay based on production of NADPH) | effects of glucose on TXNIP expression after pre-treatment (TXNIP [6]; cells with different concentrations of glucose with or without DHEA, 48 hours) |
| --- | --- | --- | --- | --- | --- | --- | --- | --- | --- | --- | --- | --- | --- | --- | --- | --- | --- |
| Oc1ccc(C=Cc2cc(O)cc(O)c2)cc1 [resveratrol] | none of these genes was affected | no effect | no significant changes in Sirt1 expression | induced AMPK phosphorylation | readily activates | without affecting expression | inhibited the expression of TXNIP in a dose dependent manner | inhibited the expression | only DHEA had an inhibitory effect in the muscle | stimulatory action at low concentrations and inhibition at higher ones | stimulatory action at low concentrations and inhibition at higher ones | not significantly affect | none of these genes was affected | suppressed the expression | suppressed the expression |  |  |
| C[C@]12CC[C@H](O)CC1=CC[C@@H]1[C@@H]2CC[C@]2(C)C(=O)CC[C@@H]12 [DHEA, dehydroepiandrosterone] | none of these genes was affected | strongly inhibited and in a dose dependent manner | without effect | without effect |  |  | without effect | inhibited the expression | inhibitory effect |  | decreased expression | not significantly affect | none of these genes was affected |  | decreased expression | 50% | almost completely blocked |
